The text below walks through data of patent US20130274233A1, “MODULATORS OF HEDGEHOG SIGNALING PATHWAY” (priority 2012, published 2013).

Common to all, as to assay type: cell-based
The target in data set [1] is T1, Smo::EGFP (Homo sapiens, UniProt Q99835).
T1 construct: expressed in transfected cells
In words: High content assay of Shh-induced Smo::EGFP accumulation in the primary cilium (Smo::EGFP/Ivs::tagRFPT NIH/3T3 cells). Particulars: 3T3/Smo::GFP/Ivs::tagRFPT cells; stimulus Shh; read-out: IC50, inhibition of Shh-induced Smo::GFP ciliary accumulaton. The source says:
(§1) NIH/3T3 cells were maintained in DMEM containing 10% (v/v) calf serum, penicillin, streptomycin, and L-glutamine. HEK293, L, cos 7, and suFU−/− mouse embryonic fibroblast cells were maintained in DMEM containing 10% (v/v) fetal bovine serum, penicillin, streptomycin, and L-glutamine. Smo::EGFP, SmoM2::GFP, and Ivs::tagRFPT were cloned into pBabe to generate retroviral particles for infection. Smo::EGFP/Ivs::tagRFPT and SmoM2::GFP/Ivs::tagRFPT stable cell lines were generated through viral infection of NIH/3T3^12. A ShhLightII Gli reporter cell line was obtained from the American Type Culture Collection (ATCC) and used in luciferase reporter assays to measure Hh pathway activity. The cell line contains a stably integrated Gli-responsive Firefly luciferase reporter and a constitutive Renilla luciferase expression construct^33. Subclones expressing Smo or SmoM2 in ShhLightII cells were used for chemical epistasis analyses.
(§2) Cells were cultured and treated in 384-well imaging plate precoated with poly-D-Lysine (Greiner Bio-one), fixed with 4% paraformaldehyde (Electron Microscopy Sciences), and stained with Hoechst (Invitrogen). Images were collected using Opera High Content Screening System (Perkin Elmer). Activityl)ase (IDBS Inc, Emeryvill, Calif.) and Pipeline Pilot (Accelrys, Inc. San Diego, Calif.) were used for high content screening data management and analysis. Acapella 2.0 software (Evotec Technologies/PerkinElmer) was used to perform multi-parametrical high content image quantification. All the images for comparison were scanned with identical microscopic settings and analyzed with the same input parameters.
(§3) Acapella 2.0 software (Evotec Technologies/PerkinElmer) was used to perform multi-parametric high content image quantification. Our image analysis script used Ivs::tagREPT to first determine the location of the PC and then Smo::EGFP to quantify the level of Smo present in the cilium.
The inventors used the spot-finding algorithm in the RFP channel to find Ivs-rich spots. Each non-overlapping spot was based on a maximum 8 pixel-radius (when using a 40× objective) around a central intensity peak of 5 pixels. A distance of at least 10 pixels was required between adjacent spot centers. Spot peaks had to exceed thresholds of relative intensity compared to the remaining body of the spot as well as to the entire image. The average, maximum and total RFP intensity of each spot were measured. The spots with sufficiently high absolute maxima to pass the selected threshold were classified as positive spots. To form candidate cilia, the inventors selected the brightest 15% of the pixels in each positive spot and merged those pixels into objects so that the brightest parts of adjacent spots could form single, larger cilia-shaped objects. To qualify the candidate cilia as true Ivs-positive cilia, the width of the objects created from merging the brightest pixels in each spot had to be at least 2 pixels and the length to half-width ratio had to exceed 3. (i.e. a 3-pixel long by 2-pixel wide cilium was the minimum accepted cilium size and the length had to be at least 1.5 fold of the width). The mean GFP intensity within these Ivs-positive cilia was used to estimate the ciliary level of Smo protein. The inventors subtracted the background of the mean GFP intensity in the 3-pixel wide area around each candidate cilium to avoid some false positives. Those Ivs-positive cilia that exceed the final mean GFP intensity threshold set for each experiment were deemed Smo-positive cilia.
(§4) Hoechst staining was used to determine the total number of nuclei per well.
Measurements of the geometry of the cilia as well as the total fluorescent intensities of each cilium in the Smo- and Ivs-channels were used to determine if any of the compounds were having unusual effects on cilia size, intensity or frequency of observation or combinations of all three characteristics.

In another data set the target is Smo::GFP (Homo sapiens, UniProt Q99835). In words: Ciliary accumulation of Smo::GFP upon overexpression (3T3/Smo::GFP Overexpression/Ivs::tagRFPT). Particulars: stimulus none, read-out: IC50, inhibiton of ciliary accumulation of Smo::GFP upon overexpression.
The subject of the next data set is Smo. The data set is described as follows: Gli-luciferase reporter induced by Smo::GFP overexpression (Smo/LightII cells). Particulars: Mus musculus, Shh Light II; 3T3/Smo::GFP Overexpression/Shh-LightII; stimulus none; read-out: IC50, inhibition of expression of Gli-luciferase reporter induced by Smo::GFP overexpression.
Description: as §1, with “The cell line contains a stably integrated Gli-responsive Firefly luciferase reporter and a constitutive Renilla luciferase expression construct^33. Subclones expressing Smo or SmoM2 in ShhLightII cells were used for chemical epistasis analyses.” left out
Hh activity assays were performed using ShhLightll cells, Smo/Lightll cells, SmoM2/Lightll cells, and suFU−/− mouse embryonic fibroblasts. In the suFU−/− cells, Hh activity was measured after co-transfection with Gli driven firefly luciferase and TK-renilla luciferase reporters^41. Wnt activity was measured in 293 cells co-transfected with Top-flash and TK-renilla luciferase reporters^42. Cells were cultured and treated in 96 well assay plates (Corning) and incubated with Duo-Glo luciferase substrates (Promega) to measure firefly and renilla luciferase activity sequentially using a Top Count NX Microplate Scintillation and Luminescence Counter (Perkin Elmer). […]
(Reporter assays use an easily measured gene product as a stand-in for the process of interest.)

The target of another data set is T2, SmoM2::GFP (Homo sapiens, UniProt Q99835, W535L).
T2 construct: expressed in transfected cells
In words: Ciliary localization of SmoM2::GFP (3T3/SmoM2::GFP Overexpression/Ivs::tagRFPT).
Description: as §1, §2, §3

The next data set deals with SmoM2. In words: Gli-luciferase reporter induced by SmoM2::GFP overexpression (SmoM2/LightII cells).
Description: as §1
Hh activity assays were performed using ShhLightll cells, Smo/Lightll cells, SmoM2/Lightll cells, and suFU−/− mouse embryonic fibroblasts. In the suFU−/− cells, Hh activity was measured after co-transfection with Gli driven firefly luciferase and TK-renilla luciferase reporters^41. Wnt activity was measured in 293 cells co-transfected with Top-flash and TK-renilla luciferase reporters^42. Cells were cultured and treated in 96 well assay plates (Corning) and incubated with Duo-Glo luciferase substrates (Promega) to measure firefly and renilla luciferase activity sequentially using a Top Count NX Microplate Scintillation and Luminescence Counter (Perkin Elmer). The renilla luciferase signal was used to normalize the firefly reporter activity.
ShhLightII cells and SmoM2/LightII cells were cultured and treated in 96 well assay plates (Corning) and incubated with Duo-Glo luciferase substrates (Promega) to sequentially measure firefly and renilla luciferase activity. Smo, or GFP, expression plasmids were co-transfected into 3T3 cells together with a Gli-responsive firefly reporter and a TK-renilla luciferase reporter contruct to monitor effects of Smo overexpression. Co-transfection of the two reporter constructs was conducted in assays measuring Hh pathway activity in suFU−/− cells. Wnt activity was measured following co-transfection of a Top-flash and renilla luciferase reporter. In both Hh and Wnt activity assays, renilla luciferase reporter activity, or mass of protein, was used to normalize expression values. Luciferase signal was read by TopCount NX Microplate Scintillation and Luminescence Counter (Perkin Elmer). Quantitative PCR probes for Ptch1, Gli1, and β-actin were purchased from Applied Biosystems. Reactions and measurements were performed using on an Applied Biosystems 7900HT at Harvard FAS Center of System Biology. β-actin was used to normalize Ptch1 and Gil1 values.

Data set [2] concerns the target T1, Smo::EGFP. The data set is described as follows: Cyc-induced Smo ciliary accumulation (Smo::EGFP/Ivs::tagRFPT cells). Particulars: 5 μM Cyc. How it is done:
as §2, §3

Data set [3] has as its system Smo::EGFP/Ivs::tagRFPT cells. The data set is described as follows: Cytotoxicity in vitro in the high content assay. Particulars: doses up to 200 μM. How it is done: as §4
Cells were cultured and treated in 384-well imaging plate precoated with poly-D-Lysine (Greiner Bio-one), fixed with 4% paraformaldehyde (Electron Microscopy Sciences), and stained with Hoechst (Invitrogen). Images were collected using Opera High Content Screening System (Perkin Elmer).

T1 sequence (Q99835 28-787): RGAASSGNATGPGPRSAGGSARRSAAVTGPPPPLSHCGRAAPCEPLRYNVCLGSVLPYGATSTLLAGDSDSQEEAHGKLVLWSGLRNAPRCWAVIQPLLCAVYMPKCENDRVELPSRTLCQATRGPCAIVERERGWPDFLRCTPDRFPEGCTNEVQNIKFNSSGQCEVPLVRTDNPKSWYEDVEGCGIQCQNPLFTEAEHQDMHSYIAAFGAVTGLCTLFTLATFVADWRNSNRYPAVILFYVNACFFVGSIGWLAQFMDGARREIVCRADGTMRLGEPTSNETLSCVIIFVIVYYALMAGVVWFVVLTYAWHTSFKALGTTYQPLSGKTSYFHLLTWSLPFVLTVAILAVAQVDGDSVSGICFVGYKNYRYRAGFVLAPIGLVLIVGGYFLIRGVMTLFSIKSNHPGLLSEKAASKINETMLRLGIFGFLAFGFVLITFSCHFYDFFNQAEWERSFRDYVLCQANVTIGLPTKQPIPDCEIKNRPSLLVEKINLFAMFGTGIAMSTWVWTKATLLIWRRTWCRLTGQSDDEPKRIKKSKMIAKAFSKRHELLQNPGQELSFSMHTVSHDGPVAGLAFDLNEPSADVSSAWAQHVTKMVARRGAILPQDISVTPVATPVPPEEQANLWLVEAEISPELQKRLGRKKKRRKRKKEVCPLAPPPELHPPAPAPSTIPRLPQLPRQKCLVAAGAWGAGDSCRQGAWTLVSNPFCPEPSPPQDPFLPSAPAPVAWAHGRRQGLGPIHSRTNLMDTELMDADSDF
T2 sequence (Q99835 28-787 W535L): as the sequence (Q99835 28-787) above, with W508L counted along it
Chain of Smo::GFP (Q99835 28-787): as the sequence (Q99835 28-787) above

In the case of `CCN(CC)c1ccc(/C=N/NC(=O)c2ccc(O)cc2)cc1` [DY131], the IC50 was 800 nM on Smo::EGFP [1]; 80 nM on Smo::GFP; greater than 30000 nM in the data set on Smo; greater than 30000 nM at SmoM2::GFP (3T3/SmoM2::GFP Overexpression/Ivs::tagRFPT, stimulus none, read-out: IC50, inhibition of ciliary localization of SmoM2::GFP); greater than 30000 nM in the data set with SmoM2 (Mus musculus, Shh Light II, 3T3/SmoM2::GFP Overexpression/Shh-LightII, stimulus none, read-out: IC50, inhibition of expression of Gli-luciferase reporter induced by SmoM2::GFP overexpression). Further, at SmoM2::GFP (SmoM2::EGFP overexpressing cells), the “effect on SmoM2 ciliary localization” value was “failed to inhibit”. Also, in the data set on SmoM2 (SmoM2 overexpression), the “effect on SmoM2 driven Hh pathway activity, transcriptional reporter” value is “failed to inhibit”. The “effect on Cyc induced Smo cilial accumulation” value at Smo::EGFP [2] is “effectively compete with Cyc”.

For the molecule `CC1(C)O[C@@H]2C[C@H]3[C@@H]4C[C@H](F)C5=CC(=O)C=C[C@]5(C)[C@@]4(F)[C@@H](O)C[C@]3(C)[C@]2(C(=O)CO)O1` [FA, fluocinolone acetonide], in data set [3], the “cytotoxic effects in vitro” value is “no obvious cytotoxic effects”.

A word on the IC50: it is the concentration that inhibits the measured activity by half.
